{"source": "patent US12605464B2", "about": "“Cyclohexane lipidoids for nucleic acid transfection and use thereof” (USTAV ORGANICKE CHEMIE A BIOCHEMIE AV CR V.V.I., priority 2021, dated 2026)", "key": {"[1]": {"test_system": "HepG2", "assay": "Cellular toxicity of LNPs, CellTiterGlo 2.0 cell viability assay", "format": "cell-based, human", "settings": "HepG2, 100 μM total lipid components, 24 hours, normalized to non-transfected cells", "experimental": "(§1) A human cell line derived from embryonic kidney cells expressing SV40 large T antigen (HEK293T), and human hepatocyte carcinoma cell line (HepG2) were cultured in 96-well plates (5×10^4 cells in […] of culture medium per well) in Dulbecco's modified medium (DMEM) supplemented with 10% foetal bovine serum (FBS) at 37° C. in 5% CO2. Cells were transfected with 2 μl of LNPs B07-B12 generated in triplicates in Example 20 (the final total concentration of all lipid components in the well was 20 μM) or 10 μl of LNPs (the final total concentration of all lipid components in the well was 100 μM) and subsequently incubated for 24 hours. The cytotoxicity of LNPs was analyzed in a CellTiterGlo 2.0 cell viability assay (Promega, USA). Cell viability was normalized to non-transfected cells (control)."}, "[2]": {"test_system": "HEK293T", "assay": "Cellular toxicity of LNPs, CellTiterGlo 2.0 cell viability assay", "format": "cell-based, human", "settings": "100 μM total lipid components, 24 hours, normalized to non-transfected cells", "experimental": "as §1"}}, "data": [{"smiles": "CCCCCCCCCCCCN(CCCCCCCCCCCC)CCCNC(=O)c1cc(C(=O)NCCCN(CCCCCCCCCCCC)CCCCCCCCCCCC)cc(C(=O)NCCCN(CCCCCCCCCCCC)CCCCCCCCCCCC)c1", "note": "[TT3]", "values": [{"measurement": "Cytotoxicity expressed as cell viability (%)", "setting": "[1]", "value": 15, "unit": "%"}, {"measurement": "Cytotoxicity expressed as cell viability (%)", "setting": "[2]", "value": 27, "unit": "%"}]}]}
